This is an account of results in US6218427A, “Chromene-3-carboxylate derivatives” (Shionogi & Co., Ltd., priority 1996, dated 2001).

The target in assay [1] is T1, endothelin A (ETA) receptor (Rattus norvegicus, UniProt P26684).
T1 construct: smooth muscle A7r5 cells derived from rat aorta; endogenous in cells; host or cells: A7r5 (rat aorta smooth muscle cells)
T1 sequence (P26684 21-426): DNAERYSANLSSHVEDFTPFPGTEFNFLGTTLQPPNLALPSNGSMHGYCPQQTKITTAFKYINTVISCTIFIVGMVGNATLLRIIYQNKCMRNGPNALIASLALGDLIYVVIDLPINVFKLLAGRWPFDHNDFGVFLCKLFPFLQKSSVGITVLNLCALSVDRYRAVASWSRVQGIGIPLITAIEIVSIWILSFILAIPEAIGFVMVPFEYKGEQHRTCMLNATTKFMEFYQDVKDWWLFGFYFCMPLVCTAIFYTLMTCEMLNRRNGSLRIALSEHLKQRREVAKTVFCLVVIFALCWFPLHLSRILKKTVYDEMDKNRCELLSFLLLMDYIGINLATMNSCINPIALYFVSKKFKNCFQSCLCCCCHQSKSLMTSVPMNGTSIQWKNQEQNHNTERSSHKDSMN
The assay can be described thus: Measurement of affinity for endothelin A (ETA) receptor: inhibition of 125I-labeled endothelin-1 binding to A7r5 cells. The settings on record: 125I-endothelin-1 8.3 pM, A7r5 cells derived from rat aorta, 37° C., 1 h. The procedure:
Experiment 1 Measurement of affinity for endothelin A (ETA) receptor
Affinities for the ETA receptor were measured from the potency for inhibition of binding of ^125 I-labeled endotheline-1 to smooth muscle A7r5 cells derived from rat aorta. In brief, the cells cultured in 48-well plates were washed with buffer, and incubated in 0.3 ml of Hepes buffered Hanks' solution containing labeled endothelin-1 (8.3 pM) and various kinds of protease inhibitors in the presence or absence of the compound of the present invention at 37° C. for 1 h. The incubation was terminated by rapid removal of the incubation medium and the cells were washed with a HEPES buffered Hanks' solution. The radioactivity of ^125 I-labeled endothelin-1 bound to the cells was determined with a gamma-counter. The specific binding was calculated by subtracting the non-specific binding which was determined in the presence of 10^-7 M non radioactive endothelin-1 from the total binding.

Assay [2] in a line: Effect on peripheral circulatory insufficiency (tail blood flow after 3° C. immersion). The format is in vivo, Wistar rats. The method, then: Experiment 4 Effect on peripheral circulatory insufficiency
Using Wistar rats, the peripheral circulatory insufficiency model was produced by immersing the rat tail tip (2-3 cm) in 1° C. water for 9 h, and experiments were performed at 3 weeks after above treatment. Tail blood flows in peripheral circulatory insufficiency rats were measured with laser-Doppler flowmetry with a tablet probe during immersing the whole tail in 3° C. water (30 min) The probe was held directly adjacent to the ventral surface of the tail, approximately 14 cm from the tip. To evaluate the effects of the compound of the present invention, peripheral circulatory insufficiency rats administered by the compound of the present invention (I-36, 30 mg/kg, po) at 2 h before 3° C. immersion.
In the normal Wistar rats, tail blood flow was transiently declined after 3° C. immersion, and gradually recovered up to about 70 % of basal level at 25 to 30 min after the immertion (normal rat). On the other hand, in the peripheral circulatory insufficiency rats, the tail blood flow measured immediately before administration of the compound of the present invention recovered to no more than 40% of basal level (peripheral circulatory insufficiency rat). […] Three days after administration of the compound of the present invention, when the circulatory effects of the compound was supposed to fully disappear, tail blood flows during 3° C. immersion were measured again. […] For statistic analysis, Dunnett's test was used.

Assay [3] concerns the target T2, endothelin B (ETB) receptor (Sus scrofa, UniProt P35463).
T2 construct: expressed in transfected cells; host or cells: COS-7
T2 sequence (P35463 27-443): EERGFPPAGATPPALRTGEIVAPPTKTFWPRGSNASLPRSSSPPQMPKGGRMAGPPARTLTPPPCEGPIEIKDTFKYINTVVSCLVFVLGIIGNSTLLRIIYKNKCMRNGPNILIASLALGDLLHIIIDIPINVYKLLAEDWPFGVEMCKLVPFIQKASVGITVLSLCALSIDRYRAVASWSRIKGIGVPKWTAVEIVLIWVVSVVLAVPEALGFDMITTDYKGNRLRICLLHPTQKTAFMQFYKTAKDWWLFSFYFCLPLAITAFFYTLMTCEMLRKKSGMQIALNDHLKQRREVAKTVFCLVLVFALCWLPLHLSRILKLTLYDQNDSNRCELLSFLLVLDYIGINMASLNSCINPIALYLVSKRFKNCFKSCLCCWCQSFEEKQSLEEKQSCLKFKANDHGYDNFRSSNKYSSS
The assay can be described thus: Measurement of affinity for endothelin B (ETB) receptor: inhibition of 125I-labeled endothelin-3 binding to COS-7 cells expressing pig ETB receptor. As to conditions: 125I-endothelin-3 25 pM, 37° C., 1 h. The method, then:
Experiment 2 Measurement of affinity for endothelin B (ETB) receptor
Affinities for the ETB receptor were measured from the potency for inhibiting ^125 I-labeled endothelin-3 binding to COS-7 cells expressing the pig endothelin ETB receptor. In brief, a plasmid vector to which the pig endothelin ETB receptor gene was inserted was transfected to COS-7 cells by the lipofectin method. After the cells were washed with buffer, 10^3 -10^4 cells were dispersed in HEPES buffered Hanks' solution (0.1 ml) containing 25 pM of 125I labeled endothelin-3 and various kinds of protease inhibitors and incubated in the presence or absence of the compound of the present invention at 37° C. for 1 h. After completion of the reaction, the radioactivity bound was trapped by a glass fiber filter and measured with a gamma counter. Specific binding was calculated by subtracting the non-specific binding measured in the presence of 10^-7 M non-radioactive endothelin-3 from the total binding.

A further assay relates to macrophage foam cell. Put plainly: Inhibition of macrophage foam cell formation in high-cholesterol-diet hamsters (aortic arch). Format: in vivo, golden Syrian hamster. The settings on record: 6 weeks, 8 hamsters, p < 0.01 vs HCD group (HCD 25.7 ± 2.7). The text has this: Experiment 3 Inhibition of macrophage foam cell formation
Male golden Syrian hamster of 12 weeks old, were used for the experiment. Hamsters were classified into a group wherein hamsters were fed with usual powder diet (OD group), a group wherein hamsters were fed with diet containing high cholesterol (2%) (HCD group) and a group wherein hamsters were fed with diet containing high cholesterol (2%) and the compound I-36 of the present invention (HCD +I-36 group) and animals in each group were fed for 6 weeks. The added amount of the compound 1-36 of the present invention was 0.01, 0.03 and 0.1% and they were equivalent to 6, 19, 66 mg/kg, respectively, calculated from food intake. Each group contains 8 hamsters.
After feeding for 6 weeks, hamsters were anesthetized with pentobarbital and subjected to thoracotomy to expose a heart. Arch of the aorta was removed after reperfusion with phosphate-buffered 10% formalin solution from the ventricle. The arch of the aorta was opened longitudinally and the number of foam cells in a microphotograph after staining with oil red O was counted with a colony counter to calculate the number per aortic arch area. The significant difference between the groups was examined by Dunnett's multiple comparison test.

In the next assay the test system is foam cells. As to conditions: American Journal of Pathology vol. 146, No.4, 819-826 (1995); cited from earlier work.

Regarding `COc1ccc(C2=C(C(=O)O)C(c3ccc4c(c3)OCO4)Oc3ccc(OC(C)C)cc32)cc1` (stereo not shown) [Compound I-36, 2-(Benz[1,3]dioxol-5-yl)-6-isopropoxy-4-(4-methoxy-phenyl)-2H-chromen-3-carboxylic acid], the 50% inhibitory concentration (IC50) in assay [1] came to 0.89 nM; in assay [3], 180 nM. Moreover, the “skin blood flow (%), average from 20-25 min after cold exposure” value in assay [2] (insufficiency rat + I-36, 30 mg/kg, po, 2 h before 3° C. immersion, n = 4, p < 0.01 vs insufficiency rat control (37.20 ± 3.29)) turned out to be 62.02 ± 1.23%; in assay [2] (wash out: three days after administration of I-36, n = 4), 44.19 ± 5.83%. In addition, in assay [2] (insufficiency rat + I-36, 30 mg/kg, po, in words), the “recovery of the tail blood flow” value was “remarkable and significant”. Also, the “recovery of the blood flow after wash out” value in assay [2] (three days after administration of I-36, in words) was “same as that before administration”. In addition, the “Aortic foam cell numbers / mm^2 (Mean ± SE)” value in the assay on macrophage foam cell (HCD + 0.01% I-36 in diet (equivalent to 6 mg/kg)) is 10.1 ± 1.7 / mm^2; with macrophage foam cell (HCD + 0.03% I-36 in diet (equivalent to 19 mg/kg)), 9.1 ± 0.8 / mm^2; in the assay with macrophage foam cell (HCD + 0.1% I-36 in diet (equivalent to 66 mg/kg)), 8.8 ± 1.1 / mm^2.
In the case of `Cc1noc(NS(=O)(=O)c2cccc3c(N(C)C)cccc23)c1C` [BMS-182874], the “number and size of foam cells” value in the assay on foam cells is “reduce the number and size of foam cells”.

What is called IC50 is the concentration needed to halve the response being measured.
